Measurements reported in patent publication US20160101106A1, “METHODS FOR TREATING HCV INFECTION” (Inhibikase Therpeutics, Inc., priority 2013, published 2016).
Where two headings read alike, the source gives them in different places.

Tests used:
Type in all cases: cell-based, HCV
HCVcc, Genotype 2a = test: HCVcc inhibitor assay in Huh 7.5 cells, Renilla luciferase readout; conditions: Hepatitis C virus, Huh-7.5.1
Procedure: The secondary screen, for anti-HCV activity utilized HCVcc, a lab-adapted full infection cycle virus, to evaluate the effect of Raf inhibition on viral entry. The HCVcc inhibitor assay uses Huh 7.5 cells and HCVcc containing the luciferase gene generated from pJ6/JFH1-p7Rluc. Briefly cells are plated one day prior to assay. On the day of assay, media is aspirated. The cells are pre-treated with 100 μl of 1X compound. After 1 h pretreatment, compound containing media is aspirated, HCVcc diluted 1x compound is added to each well. Toxicity plates receive only the test compound in tissue culture medium. […] Compound cytotoxicity is assessed by MTS (CellTiter® 96 Reagent, Promega, Madison Wis.) dye reduction. The % reduction in viral entry is determined and reported. […]
The plasmids carrying HCV J6/JFH1 genome, or chimeric mCon1/JFH1 or mH77/JFH1 genome and Rluc reporter gene were kindly provided by Dr. Charles Rice at Rockefeller University. […] HCVcc infectivity was determined by TCID50 assay. […] The number of HCV positive cells was counted. The TCID50 was calculated according to the Reed and Muench method.
The format of the test plate has been standardized by SOUTHERN. […] Samples were evaluated for antiviral efficacy with triplicate measurements using 6 concentrations at half-log (or other) dilutions in order to determine EC50 values and cellular cytotoxicity, if detectable. […]

HCVcc GT2a = test: Synergistic antiviral potency against HCVcc (AZ-628 with direct-acting antivirals); conditions: for EC50: read-out: EC50 alone
Procedure: The tested RAF inhibitors were evaluated for an ability to synergize with other current, late stage or marketed direct-acting antivirus (DAAs).

HCVpp, Genotype 1b = test: microbe, parasite or virus in culture
[1] = Genotype 1b, luciferase tagged HCV GT-1b pseudotyped virus, Huh 7.5.1, ≧80% confluent cells, MOI 0.02, read-out: EC50

Cc1ccc(NC(=O)c2cccc(C(C)(C)C#N)c2)cc1Nc1ccc2ncn(C)c(=O)c2c1 [AZ-628]
EC50 (HCVcc, Genotype 2a): 120 nM
inhibition at 0.025 µM (HCVcc GT2a; Hepatitis C virus, GT2A, IkT-064 25 nM, GS-7977 0 nm): 0%
inhibition at 0.05 µM (HCVcc GT2a; Hepatitis C virus, GT2A, IkT-064 50 nM, GS-7977 0 nm): 0%
inhibition at 0.1 µM (HCVcc GT2a; Hepatitis C virus, GT2A, IkT-064 100 nM, GS-7977 0 nm): 0%
inhibition at 0.2 µM (HCVcc GT2a; Hepatitis C virus, GT2A, IkT-064 200 nM, GS-7977 0 nm): 5.15%
inhibition at 0.4 µM (HCVcc GT2a; Hepatitis C virus, GT2A, IkT-064 400 nM, GS-7977 0 nm): 73.4%
EC50 (HCVcc GT2a; Hepatitis C virus): 300 nM
% antiviral inhibition (HCVcc GT2a; IkT-064 25 nM, BMS-790052 0 pM): 2.83%
% antiviral inhibition (HCVcc GT2a; IkT-064 200 nM, BMS-790052 0 pM): 17.39%
% antiviral inhibition (HCVcc GT2a; IkT-064 400 nM, BMS-790052 0 pM): 74.25%
EC50 (HCVpp, Genotype 1b; Hepatitis C virus, Huh-7.5.1): 420 nM

COC(=O)N[C@H](C(=O)N1CCC[C@H]1c1ncc(-c2ccc(-c3ccc(-c4cnc([C@@H]5CCCN5C(=O)[C@@H](NC(=O)OC)C(C)C)[nH]4)cc3)cc2)[nH]1)C(C)C [BMS-790052]
EC50 (HCVcc GT2a; Hepatitis C virus, Genotype 2a, single drug): 0.1 nM
% antiviral inhibition (HCVcc GT2a; IkT-064 0 nM, BMS-790052 0.781 pM): 0%
% antiviral inhibition (HCVcc GT2a; IkT-064 0 nM, BMS-790052 1.563 pM): 0%
% antiviral inhibition (HCVcc GT2a; IkT-064 0 nM, BMS-790052 3.125 pM): 8.7%
% antiviral inhibition (HCVcc GT2a; IkT-064 0 nM, BMS-790052 6.25 pM): 8.72%
% antiviral inhibition (HCVcc GT2a; IkT-064 0 nM, BMS-790052 12.5 pM): 17.27%
% antiviral inhibition (HCVcc GT2a; IkT-064 0 nM, BMS-790052 25 pM): 19.54%
% antiviral inhibition (HCVcc GT2a; IkT-064 0 nM, BMS-790052 50 pM): 33.86%
% antiviral inhibition (HCVcc GT2a; IkT-064 0 nM, BMS-790052 100 pM): 59.54%

CC(C)OC(=O)[C@H](C)N[P@](=O)(OC[C@H]1O[C@@H](n2ccc(=O)[nH]c2=O)[C@](C)(F)[C@@H]1O)Oc1ccccc1 [GS-7977]
EC50 (HCVcc GT2a; Genotype 2a, single drug): 250 nM
Fold Synergy (HCVcc GT2a; Genotype 2a, with AZ-628): 5
% antiviral inhibition (HCVcc GT2a; IkT-064 0 nM, GS-7977 1.563 nm): 0%
% antiviral inhibition (HCVcc GT2a; IkT-064 0 nM, GS-7977 3.125 nm): 0%
% antiviral inhibition (HCVcc GT2a; IkT-064 0 nM, GS-7977 6.25 nm): 0%
% antiviral inhibition (HCVcc GT2a; IkT-064 0 nM, GS-7977 12.5 nm): 0%
% antiviral inhibition (HCVcc GT2a; IkT-064 0 nM, GS-7977 25 nm): 2.65%
% antiviral inhibition (HCVcc GT2a; IkT-064 0 nM, GS-7977 50 nm): 11.54%
% antiviral inhibition (HCVcc GT2a; IkT-064 0 nM, GS-7977 100 nm): 21.51%
% antiviral inhibition (HCVcc GT2a; IkT-064 0 nM, GS-7977 200 nm): 44.74%

CC(C)(C)c1nc(-c2cccc(NS(=O)(=O)c3c(F)cccc3F)c2F)c(-c2ccnc(N)n2)s1 [GSK2118436/dabrafinib]
EC50 (HCVpp, Genotype 1b; [1]): > 5000 nM

Cn1c(Nc2ccc(C(F)(F)F)cc2)nc2cc(Oc3ccnc(-c4ncc(C(F)(F)F)[nH]4)c3)ccc21 [Raf265]
EC50 (HCVcc, Genotype 2a): 1050 nM
EC50 (HCVpp, Genotype 1b; Hepatitis C virus, Huh-7.5.1): 890 nM

CCCS(=O)(=O)Nc1ccc(F)c(C(=O)c2c[nH]c3ncc(-c4ccc(Cl)cc4)cc23)c1F [Zelboraf/PLX4032]
EC50 (HCVpp, Genotype 1b; [1]): > 5000 nM

CNC(=O)c1cc(Oc2ccc(NC(=O)Nc3ccc(Cl)c(C(F)(F)F)c3)cc2)ccn1 [sorafenib]
EC50 (HCVpp, Genotype 1b; Hepatitis C virus, Huh-7.5.1): 1810 nM
